Experimental data taken from patent US20040266749A1, “Methods for cystic fibrosis disease assessment and methods for treating anaerobic P. aeruginosa biofilms in cystic fibrosis disease” (priority 2002, published 2004).

System: P. aeruginosa rhlR mutant anaerobic biofilm
Test: Anaerobic biofilm protection of rhlR mutant bacteria by carboxy-PTIO (confocal LIVE/DEAD viability)
Format: cell-based, Pseudomonas aeruginosa
Settings: 5 mM carboxy-PTIO
Experimental: (b) Confocal examination of biofilms. For biofilm architecture examination, circular coverslips are glued to the bottom of 35×10 mm polystyrene tissue culture dishes with small holes in the base (Falcon). The plates are sterilized overnight by UV irradiation. Three ml of aerobic L-broth, aerobic LBN or anaerobic LBN is inoculated with ˜10^7 CFU of overnight L-broth grown culture. After 24 hr at 37° C., biofilms are washed with saline and stained with 0.5 ml of a LIVE/DEAD BacLight bacterial viability stain (Molecular Probes, Inc., Eugene, Oreg.). Images are acquired on a Zeiss LSM 510 laser scanning confocal unit attached to an Axiovert microscope using a 63×1.4 NA oil immersion objective. For two color images, samples are scanned sequentially at 488 nm and 546 nm. Syto 9 (green fluorescence) is detected through a 505-530 nm bandpass filter and propidium iodine (red fluorescence) is detected through a 560 nm longpass filter and presented in two channels of a 512×512 pixel, 8-bit image.
(a) Anaerobic biofilm protection by 2-(4-Carboxyphenyl)-4,4,5,5-tetramethylimidazoline-1-oxyl-3-oxide (carboxy-PTIO). Biofilms of rhlR mutant bacteria are grown anaerobically in the presence vs. absence of 5 mM carboxy-PTIO (Molecular Probes, Eugene, Oreg.), an NO scavenger. […]

CC1(C)N([O])C(c2ccc(C(=O)O)cc2)=[N+]([O-])C1(C)C [carboxy-PTIO, 2-(4-Carboxyphenyl)-4,4,5,5-tetramethylimidazoline-1-oxyl-3-oxide]
Biofilm zone in which protection is primarily observed (top of the biofilm) (anaerobic rhlR mutant biofilm, sagittal sectioning, FIG. 3B line 2 vs. 1): 10-15 μm
Protection of anaerobic rhlR mutant biofilm bacteria from cell death (viability) (rhlR mutant grown anaerobically as biofilm, FIG. 3A panels 2 vs. 1): protected the rhlR mutant
